Laboratory results as given in patent US10251835B2, “Cranial delivery of pharmaceuticals” (GLIA, LLC, priority 2013, dated 2019).
Entries after “also recorded” stand apart in the source; their conditions may differ.

Experiments:
[1] = tested on: patient unable to swallow with loss of appetite; experiment: Treatment of drug-induced anorexia and oropharyngeal dysphagia, dronabinol applied to forehead; format: in vivo, human
Description: A patient had been on dexamethasone therapy for 20 months following surgery, radiation, and chemotherapy. After tapering the dose of dexamethasone from 16 mg per day to 1.5 mg per day, the patient was unable to swallow and reported a loss of appetite. Dronabinol was administered to the patient's forehead once per day at 2.5 mg per dose. Improvement in swallowing and appetite were noted within 24 hours of the first administration.
After three weeks of continued dronabinol therapy, application was again stopped for 24 hours, resulting in the same loss of appetite and difficulty swallowing.
The effect of oral administration of dronabinol was tested after another two weeks as an alternative to the topical route of administration described above. […] Typical meals include steak, meatball sandwich and fruit drinks.
The patient had also ceased dexamethasone dosing very early on.

[2] = tested on: person with CYMBALTA induced loss of appetite; settings: 2 mg dronabinol to forehead daily with oral CYMBALTA; 2 week course
Description: The subject topically applied 2 mg of dronabinol to their forehead daily together with the oral CYMBALTA™.

[3] = tested on: person with late stage Alzheimer disease; experiment: Treatment of symptoms associated with Alzheimer's disease; format: in vivo, human; settings: approximately 2 mg dronabinol to forehead, then daily dosing
Description: A person diagnosed with late stage Alzheimer disease five years ago suffers from episodes of extreme agitation, aggressive behavior, and nocturnal restlessness and disorientation that is difficult for their caregiver to manage. Approximately 2 mg dronabinol was delivered cranially to their forehead.

[4] = tested on: patient with cognitive impairment due to surgery; experiment: Treatment of surgically induced cognitive deficits, cranially delivered dronabinol; format: in vivo, human
From the text: The patient described in Example 1 suffered from a co-morbid condition of cognitive impairment due to surgery to remove a frontal lobe glioblastoma multiforma. The cognitive impairment continued for two years following the surgery at which time treatment with cranially delivered dronabinol was begun.

[5] = tested on: patient with corneal Herpes zoster; experiment: Treatment of herpetic keratitis; format: in vivo, human; settings: for intraocular pressure: ganciclovir gel plus progesterone to forehead
From the text: A person suffered a first onset of active corneal Herpes zoster. They presented with classic Herpes Zoster symptoms including, left hemisphere unilateral skin lesions on forehead, bridge of nose area and down the nose not including the tip; left cornea dendrites, keratitis and edema; loss of functional vision, elevated intraocular pressure as high as 42 mm Hg, conjunctival irritation and redness and anesthetic cornea. There were also general body flu symptoms.
The patient was initially treated with ophthalmic prednisolone acetate 1% up to 5 times daily, ophthalmic antibiotics, non-prescription ophthalmic wetting agents, and lubrication with gels administered to the eye. Additional drug therapies included systemic oral valcyclovir as high as 2 g per day and medications to reduce intraocular pressure.
Despite the therapy, symptom flare-up was as frequent as 2 weeks to 1 month over the past 10 years. Although intraocular pressure returned to within the normal range, cataracts formed as a result of long term use of corticosteroids.
The cornea surface contour became increasingly distorted with prominent ridges. There was incursion of capillaries across the conjunctiva into the cornea, both superficially and deep. Deposition of phospholipids through a leaching process occluded the cornea with grey color deposits on about 50% of its surface.
Corneal thinning had progressed to near perforation levels which required preparation for corneal patch surgery.
At this point, 1% topical progesterone (approximately 1 mg of progesterone) was first administered as a method to keep the cornea from perforating and the tear film intact. The drug was applied to the forehead 4 times daily together with topical antibiotics and corticosteroids.
After stabilizing the cornea, antiviral treatment was begun with ganciclovir gel (0.15%; 0.15 mg of drug) applied five times daily to the forehead together with once daily progesterone (1%; 1 mg of drug) and a nightly drop of ophthalmic antibiotic. Intraocular pressure measured at the onset of ganciclovir treatment was 18 mm Hg.
The patient reported a decrease in eye strain as a result of an improvement in tear film. […] Over the next two weeks, inflammation was further reduced and visual acuity increased somewhat when the head was tilted back. During the first full month of treatment, the affected eye generally felt comfortable. There was a lack of inflammation, and some vision returned to the threshold of functionality. Intraocular pressure remained normal in the range of 16 mm Hg.
There was modest improvement in reading the eye chart, and corneal staining due to defects was minimized. Intraocular pressure remained normal in both eyes at about 16 mm Hg during this period. The phospholipid deposits further reduced in density and began to give the appearance of lesser areas of concentrations. Nearly functional vision could be achieved by positioning the head back and viewing through the central cornea. The residual clear area of the cornea became more so and less inflamed. Through the end of the second month, improvement to the cornea accelerated. The pupil was now clearly visible and more light was entering the eye.
The patient was examined regularly by an ophthalmologist, and after three and one half months of treatment. The intraocular pressure was normal at 12 mm Hg. […] Intraocular pressure has remained in the same range for more than one year.

[6] = tested on: subject with left-side trigeminal neuralgia and facial droop; experiment: Treatment of trigeminal neuralgia and facial palsy; format: in vivo, human; settings: progesterone 1% (1 mg) four times daily to forehead followed by 0.15 g ganciclovir (0.15% formulation) up to five times daily
Description: A subject presented with left-side trigeminal neuralgia and left side facial droop of 10 years duration. Therapy was initiated by topically applying progesterone (1% by weight) equivalent to 1 mg four times daily to the patient's forehead. This was followed by application of 0.15 g ganciclovir (as a 0.15% by weight formulation) up to five times daily.

person = experiment: Rapid anti-anxiety treatment; format: in vivo, human; settings: 1 mg midazolam to forehead
Description: A person applied 1 mg of midazolam to their forehead on three separate occasions. […] These effects lasted for 4 to 6 hours after application of the drug.

[7] = tested on: dogs with mucus discharge from the eyes; experiment: Treatment of dry eye in domestic animals; format: in vivo, dog; settings: bulldog; tacrolimus directly in the eye
From the text: A puggle presented with mucus discharge from the eyes. […] The owner reported that the dog has this problem spring and fall, which indicates it is allergic seasonal rhinitis. The reported use took place in the fall.
A bulldog diagnosed with Sjogren's syndrome had mucus discharge from the eyes.

Compound: CCCCCc1cc(O)c2c(c1)OC(C)(C)[C@@H]1CCC(C)=C[C@@H]21 (relative stereo) [dronabinol, (6aR-trans)-6a,7,8,10a-tetrahydro-6,6,9-trimethyl-3-pentyl-6H-dibenzo[b,d]pyran-1-ol]
- appetite and swallowing after missing dronabinol therapy ([1]; after missing one day of dronabinol therapy): decrease in appetite and difficulty swallowing liquids
- dose requirement on continued treatment ([1]; after one year of cranial dosing with challenge stops and restarts): No increase in dose has been required; also recorded: daily dosing is necessary for continued effectiveness
- appetite and swallowing (patient report) ([1]; dronabinol 2.5 mg applied to forehead, four weeks, restarts and single rescue doses): healthy appetite and no problems swallowing; also recorded: normal appetite and swallowing after one day; also recorded: complete reversal of symptoms within about two hours; also recorded: rescued again by single dose applied cranially
- time to improvement in swallowing and appetite ([1]; dronabinol 2.5 mg per dose to forehead once per day, after first administration): ≤ 24 h
- swallowing and chewing under oral administration ([1]; oral 2.5 mg dronabinol instead of topical, within one day): difficulty swallowing and chewing
- prevention of CYMBALTA induced loss of appetite [2]: prevented the CYMBALTA™ induced loss of appetite
- agitation, aggressive behavior, nocturnal restlessness symptoms [3]: improvement in their symptoms was observable within two hours; also recorded: less frequent nocturnal disturbances; also recorded: additional significantly noticeable improvement in their symptoms
- scar tissue around the area of surgery as detected by imaging [4]: noticeable decrease in scar tissue
- cognitive function (noted by physicians) ([4]; begun two years after surgery): dramatic improvement in cognitive function

Compound: Nc1nc(O)c2ncn(COC(CO)CO)c2n1 [ganciclovir]
- inflammation, visual acuity and state of affected eye ([5]; ganciclovir gel 0.15% (0.15 mg) five times daily plus progesterone 1% (1 mg) once daily to forehead, nightly ophthalmic antibiotic, 1 week to 3.5 months): less inflammation and a slight improvement in visual acuity; also recorded: some functional vision was attained; also recorded: stable and normalizing
- intraocular pressure ([5]; after three and one half months): 12 mm Hg
- intraocular pressure ([5]; both eyes, examination period up to third month): about 16 mm Hg
- intraocular pressure ([5]; first full month of treatment): ~16 mm Hg
- facial muscles contracted for 10 years [6]: relaxation of facial muscles

Compound: Cc1ncc2n1-c1ccc(Cl)cc1C(c1ccccc1F)=NC2 [midazolam]
- duration of effects (person): 4 to 6 h
- effect produced (person): mild sedation and anti-anxiety
- time to response (person; three separate occasions): ≤ 5 min

Compound: C=CC[C@@H]1/C=C(\C)C[C@H](C)C[C@H](OC)[C@H]2O[C@@](O)(C(=O)C(=O)N3CCCC[C@H]3C(=O)O[C@H](/C(C)=C/[C@@H]3CC[C@@H](O)[C@H](OC)C3)[C@H](C)[C@@H](O)CC1=O)[C@H](C)C[C@@H]2OC [tacrolimus]
- mucus discharge from the eyes [7]: without completely stopping the discharge
